A short description of the series: gradient 5% acetonitrile 3 min, to 50% in 2 min, to 85% in 15 min, held 3 min, 100 µL/min. The settings on record: column: Zorbax Extend-C18 2.1 x 50 mm; eluents: water / acetonitrile, 0.1% formic acid. In a few lines: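 Data were gathered over 3 months by HPLC coupled to a quadrupole time-of-flight mass spectrometer, operated in positive and negative ionization mode. Mixtures of ~100 pure standards ran on a Zorbax Extend-C18 column (2.1 × 50 mm, 1.8 μm) at 100 μL/min, with water and acetonitrile each containing 0.1% formic acid and dead and dwell volumes of 40 μL and 900 μL. Retention time was read from adduct peaks picked by computer and checked manually.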
`O=C(c1ccc(F)c(F)c1)N1CCC2(CC1)NC(=O)N(Cc1ccc(F)cc1)C2=O` had an RP-LC retention time of 830 s.
`COc1cccc(Cn2c(=O)c3sccc3n(Cc3nc(-c4ccccc4OC)no3)c2=O)c1` showed an RP-LC retention time of 987 s.
The result for `CN(C1CCc2nn(CC3CC3)c(=O)n2CC1)S(=O)(=O)c1ccc(C(F)(F)F)cc1` (configuration not stated) reads 876 s; that for `COc1ccc2[nH]c(C(=O)N3CCN(C(=O)Cc4cccs4)CC3)cc2c1`, 758 s.
The result for `Cc1nnc(N2CCN(C(=O)Nc3ccc4c(c3)OCCO4)CC2)c2nn(-c3ccccc3)c(C)c12` reads 679 s; that for `Cc1onc(-c2ccccc2Cl)c1C(=O)NC1C(=O)N2C1SC(C)(C)C2C(=O)O` (configuration not stated), 815 s.
Under `CC1CC(=O)N(Cc2c(F)cccc2Cl)c2ccccc2N1` (configuration not stated) stands 897 s.
In turn, `CSc1ccc(Cl)c(C(=O)N2CC(=O)Nc3ccccc32)c1` yielded an RP-LC retention time of 796 s.
In the case of `O=C(CN1CCc2ccccc2C1C(=O)N1CCCC1)NCc1ccc(C(F)(F)F)cc1` (configuration not stated), the RP-LC retention time turned out to be 880 s.
Consider `CCN1CCCn2cc(S(=O)(=O)Nc3ccc(C)cc3Cl)cc2C1=O`, for which the RP-LC retention time came out at 775 s.
In turn, `O=C(Cn1c(=O)oc2ccc(C(=O)N3CCCC3)cc21)N1CCC(Cc2ccccc2)CC1` gave an RP-LC retention time of 868 s.
As for `CCc1ccccc1NC(=O)c1sc(-c2cn(C)c3ncccc23)nc1C`, the RP-LC retention time was found to be 971 s.
Under `CC(C)CNC(=O)C1(CCO)CCN(c2ncccn2)C1` (configuration not stated) stands 584 s; under `COc1ccc(NS(=O)(=O)c2cc3n(c2)CCCNC3=O)c(C)c1`, 640 s; under `O=C(Nc1cc(-c2ccsc2)no1)c1ccc(F)c(F)c1`, 982 s.
The molecule `COc1ccc(CCC(=O)N2CCC3(C2)C(=O)N(C)c2ccc(OC)cc23)cc1` (configuration not stated) yielded an RP-LC retention time of 800 s.
Under `CS(=O)(=O)N1CCC(C(=O)N2CC3CC(C2)c2cccc(=O)n2C3)CC1` (configuration not stated) stands 528 s.
With `CC(C)C(=O)NCC(c1ccccc1Cl)c1c[nH]c2ccccc12` (configuration not stated), the RP-LC retention time came to 929 s.
Under `O=C(COc1ccc(Cl)cc1)Nc1nc(-c2cccc3ccccc23)cs1` stands 1220 s; under `Cc1ccccc1-c1nnc(COc2ccc(NC(=O)C3CCC3)cc2)o1`, 885 s.
The result for `O=C(NC1CC1)c1ccccc1OCC1CCCN(Cc2cc3ccccc3nc2Cl)C1` (configuration not stated) reads 650 s; that for `CC(=O)N1CCc2c(sc(NC(=O)c3cc(=O)c4ccccc4o3)c2C#N)C1`, 670 s; that for `COC(=O)c1ccc2c(=O)n(-c3cc(C)cc(C)c3)c(N3CCSC3)nc2c1`, 1180 s.
The result for `COC(=O)C1=CN(c2cccc(Br)c2)c2ccc(F)cc2S1(=O)=O` reads 913 s; that for `CCCC(=O)Nc1ccc2nc(N3CCN(c4cccc(C)c4C)CC3)cc(C(=O)O)c2c1`, 732 s; that for `O=C(NCc1ccco1)c1csc(-c2ccc(N3CCCCC3)nc2)n1`, 819 s.
The molecule `CCCCN1CCN(C(=O)CCC2CCCN(c3cc(NC4CC4)ncn3)C2)CC1` (configuration not stated) registered an RP-LC retention time of 565 s.
Take `CN1C(=O)C(C)(C(=O)NCc2ccc(Br)cc2)Oc2cccnc21` (configuration not stated): the RP-LC retention time was determined as 837 s.
The result for `CN1C(=O)c2cc(C(=O)NCc3cccc(Cl)c3)nn2CC1(C)C(=O)NCc1ccccc1` (configuration not stated) reads 793 s; that for `COC(=O)c1ccccc1NC(=O)N1CCN(c2ccc(=O)n(-c3ccccc3)n2)CC1`, 876 s; that for `CCc1c(C(=O)O)nnn1-c1ccccc1F`, 690 s.
The molecule `CCn1c(C(=O)NCCCOC(C)C)cc2c(-c3cccs3)nn(-c3ccccc3)c21` had an RP-LC retention time of 1150 s.

Source of the values: the METLIN SMRT retention time set (Domingo-Almenara et al. 2019).
